This assay addresses T1, human PKCθ full length enzyme (Homo sapiens, UniProt Q04759).
T1 construct: human PKCθ full length enzyme (Panvera Cat# P2996); purchased Panvera P2996
Nature of the assay: PKCθ IMAP assay (fluorescence polarization). The assay is classed as biochemical. The note with it: human PKCθ full length enzyme, IMAP; average value; read-out: IC50 PKCθ IMAP.

The record followed here is patent US7781591B2, “Substituted 3-cyanopyridines as protein kinase inhibitors” (Wyeth LLC, priority 2006, dated 2010).

T1 sequence (Q04759 whole entry): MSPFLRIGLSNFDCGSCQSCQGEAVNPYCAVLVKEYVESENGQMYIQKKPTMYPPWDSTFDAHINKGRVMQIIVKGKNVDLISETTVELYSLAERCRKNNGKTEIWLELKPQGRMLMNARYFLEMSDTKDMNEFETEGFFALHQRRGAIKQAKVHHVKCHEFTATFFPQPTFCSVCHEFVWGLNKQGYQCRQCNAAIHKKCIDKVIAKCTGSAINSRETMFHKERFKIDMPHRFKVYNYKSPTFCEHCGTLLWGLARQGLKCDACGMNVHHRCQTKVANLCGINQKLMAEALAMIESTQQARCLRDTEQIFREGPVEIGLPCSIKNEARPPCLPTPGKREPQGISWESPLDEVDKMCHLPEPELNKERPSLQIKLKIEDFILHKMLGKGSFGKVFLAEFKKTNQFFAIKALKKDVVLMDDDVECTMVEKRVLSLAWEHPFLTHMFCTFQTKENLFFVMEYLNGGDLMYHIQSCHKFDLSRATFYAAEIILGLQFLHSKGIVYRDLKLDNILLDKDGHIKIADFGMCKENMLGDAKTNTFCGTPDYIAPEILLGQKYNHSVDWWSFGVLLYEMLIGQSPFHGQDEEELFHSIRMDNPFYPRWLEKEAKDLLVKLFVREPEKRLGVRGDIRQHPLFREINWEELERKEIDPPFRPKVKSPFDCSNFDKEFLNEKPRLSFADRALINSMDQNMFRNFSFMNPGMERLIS

What is called IC50 is the concentration at which inhibition is half-maximal. For `N#Cc1cncc(-c2cccc(OC[C@@H](N)Cc3ccccc3)c2)c1Nc1cccc2[nH]ccc12` [Compound 366, 5-(3-{[(2S)-2-amino-3-phenylpropyl]oxy}phenyl)-4-(1H-indol-4-ylamino)nicotinonitrile], the IC50 was 20 nM.
Regarding `Cc1c(Nc2c(C#N)cncc2-c2cc3cc(CNCc4ccccc4)ccc3s2)ccc2[nH]ccc12` [Compound 367, 5-{5-[(benzylamino)methyl]-1-benzothien-2-yl}-4-[(4-methyl-1H-indol-5-yl)amino]nicotinonitrile], the half-maximal inhibitory concentration (IC50) came to 3 nM.
As for `CCCCN1CCN(CCOc2ccc(-c3cncc(C#N)c3Nc3ccc4[nH]ccc4c3C)cc2)CC1` [Compound 368, 5-{4-[2-(4-butylpiperazin-1-yl)ethoxy]phenyl}-4-[(4-methyl-1H-indol-5-yl)amino]nicotinonitrile], the IC50 was found to be 10 nM.
In the case of `N#Cc1cncc(-c2cc3cc(C4OCCCO4)ccc3o2)c1Nc1cccc2[nH]ccc12` [Compound 369, 5-[5-(1,3-dioxan-2-yl)-1-benzofuran-2-yl]-4-(1H-indol-4-ylamino)nicotinonitrile], the IC50 stood at 40 nM.
Then `Cc1c(Nc2c(C#N)cncc2-c2cc3cc(C4OCCCO4)ccc3o2)ccc2[nH]ccc12` [Compound 370, 5-[5-(1,3-dioxan-2-yl)-1-benzofuran-2-yl]-4-[(4-methyl-1H-indol-5-yl)amino]nicotinonitrile], with 4 nM.
On to `COc1ccc(-c2cncc(C#N)c2Nc2ccc3[nH]ccc3c2C)c(Cl)c1` [Compound 371, 5-(2-chloro-4-methoxyphenyl)-4-[(4-methyl-1H-indol-5-yl)amino]nicotinonitrile], for which the concentration for half-maximal inhibition (IC50) stood at 30 nM.
Take `COc1cc(-c2cncc(C#N)c2Nc2ccc3[nH]ccc3c2C)ccc1OCCCl` [Compound 372, 5-[4-(2-chloroethoxy)-3-methoxyphenyl]-4-[(4-methyl-1H-indol-5-yl)amino]nicotinonitrile]: the concentration for half-maximal inhibition (IC50) came out at 7 nM.
Under `N#Cc1cncc(-c2cc3ccccc3o2)c1Nc1ccc2[nH]ncc2c1` [Compound 373, 5-(1-benzofuran-2-yl)-4-(1H-indazol-5-ylamino)nicotinonitrile] stands 1000 nM; under `Cc1c(Nc2c(C#N)cncc2-c2ccc(O)cc2)ccc2[nH]ccc12` [Compound 374, 5-(4-hydroxyphenyl)-4-[(4-methyl-1H-indol-5-yl)amino]nicotinonitrile], 20 nM.
Under `COc1cccc(Cl)c1-c1cncc(C#N)c1Nc1ccc2[nH]ccc2c1C` [Compound 375, 5-(2-chloro-6-methoxyphenyl)-4-[(4-methyl-1H-indol-5-yl)amino]nicotinonitrile] stands 150 nM; under `COc1cc(-c2cncc(C#N)c2Nc2ccc3[nH]ccc3c2C)ccc1OCCN1CCCCC1` [Compound 376, 5-[3-methoxy-4-(2-piperidin-1-ylethoxy)phenyl]-4-[(4-methyl-1H-indol-5-yl)amino]nicotinonitrile], 20 nM; under `COc1cc(-c2cncc(C#N)c2Nc2ccc3[nH]ccc3c2C)ccc1OCCN1CCN(C)CC1` [Compound 377, 5-{3-methoxy-4-[2-(4-methylpiperazin-1-yl)ethoxy]phenyl}-4-[(4-methyl-1H-indol-5-yl)amino]nicotinonitrile], 10 nM.
Then `COc1cc(-c2cncc(C#N)c2Nc2ccc3[nH]ccc3c2C)ccc1OCCN1CCOCC1` [Compound 378, 5-[3-methoxy-4-(2-morpholin-4-ylethoxy)phenyl]-4-[(4-methyl-1H-indol-5-yl)amino]nicotinonitrile], with 30 nM; and `COc1ccc(-c2cncc(C#N)c2Nc2ccc3[nH]ncc3c2)cc1OC` [Compound 379, 5-(3,4-dimethoxyphenyl)-4-(1H-indazol-5-ylamino)nicotinonitrile], with 2530 nM; and `Cc1c(Nc2c(C#N)cncc2-c2cccc(Cl)c2Cl)ccc2[nH]ccc12` [Compound 380, 5-(2,3-dichlorophenyl)-4-[(4-methyl-1H-indol-5-yl)amino]nicotinonitrile], with 50 nM.
